This is an account of results in patent publication US11618746B2, “Inhibitors of APOL1 and methods of using same” (Vertex Pharmaceuticals Incorporated, priority 2018, dated 2023).

This assay has as its target T1, G1 APOL1 (Homo sapiens, UniProt O14791, I384M/S342G).
T1 construct: expressed in transfected cells
T1 sequence (O14791 28-398 S342G/I384M): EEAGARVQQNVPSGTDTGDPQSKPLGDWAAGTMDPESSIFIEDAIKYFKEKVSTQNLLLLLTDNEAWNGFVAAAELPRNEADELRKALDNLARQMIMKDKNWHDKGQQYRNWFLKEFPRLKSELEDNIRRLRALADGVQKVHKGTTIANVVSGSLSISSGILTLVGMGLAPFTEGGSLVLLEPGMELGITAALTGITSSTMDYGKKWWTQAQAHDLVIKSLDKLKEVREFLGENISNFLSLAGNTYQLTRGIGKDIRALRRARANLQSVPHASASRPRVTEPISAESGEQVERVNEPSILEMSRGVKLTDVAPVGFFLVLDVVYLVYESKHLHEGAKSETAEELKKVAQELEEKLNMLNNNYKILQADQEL
The experiment in a line: Acute APOL1 Thallium Assay with inducible stable clones of HEK 293 cells. Conditions: HEK T-Rex tetracycline-inducible cells expressing G1 APOL1 (clone G1 DC3.25); inhibition of thallium flux rate. In kind it is cell-based. An excerpt:
Acute APOL1 Thallium Assay with Inducible Stable Clones of HEK 293 Cells
Apolipoprotein L1 (APOL1) proteins form potassium-permeable cation pores in the plasma membrane. APOL1 risk variants (G1 and G2) induce greater potassium flux than G0 in HEK293 cells. This assay exploits the permeability of thallium (T1+) through ligand-gated potassium channels. The dye produces a bright fluorescent signal upon binding to T1+ conducted through potassium channels. The intensity of the T1+ signal is proportional to the number of potassium channels in the open state. Therefore, it provides a functional indication of the potassium channel activities. During the initial dye-loading step, the T1+ indicator dye as an acetoxymethyl (AM) ester enters the cells through passive diffusion. Cytoplasm esterases cleave the AM ester and relieve its active thallium-sensitive form. The cells are then stimulated with T1+. The increase of fluorescence in the assay represents the influx of T1+ into the cell specifically through the potassium channel (i.e. through APOL1 pores), providing a functional measurement of potassium channel/pore activity. The Thallium assay is conducted with cells expressing G1 APOL1.
APOL1 Cell Line (HEK T-Rex Stable Inducible Cell Line) • HEK T-Rex System • Tetracycline (Tet) inducible mammalian expression system. • Stably express the Tet repressor to regulate transcription. • Expression under the full-length CMV promoter. • APOL1 stable inducible cell line Clone used: G1 DC3.25
Tissue Culture Media • Cell Culture Medium • DMEM +10% FBS +P/S +5 μg/mL blasticidin+1 μg/mL puromycin. • 500 mL DMEM +55 mL FBS +5 mL P/S +280 μL blasticidin S HCl (10 mg/mL)+56 μL puromycin (10 mg/mL). • Cell Assay Medium • DMEM with 2% FBS+pen strep.
Instruments and Equipment • Nuaire cell culture hood, Cat. No. 540-600 • 37° C./5% CO2 incubator link to robotic arm, Liconic: STX110 • Molecular Devices FLIPR^Tetra High throughput cellular screening system, Cat. No. FT0324, Molecular Devices • ThermoFisher MultiDrop 384, Cat. No. 5840300 • Biotek Microfill, Cat. No. ASF1000A-4145 • BioRad TC10 cell counter, Cat. No. 145-0010 Assay Procedures
Cells Scaled Up from Frozen Vials • APOL1 G1 3.25 (HEK293 T-Rex) frozen vials: 5 million cells per vial • Step 1, Day 1: Defrost frozen vial into T-225. • Step 2, Day 5: (when 85% confluent): Split one T-225 at 3×10^6 cells per flask. • Step 3, Day 8: Splits cells to set up for the assay plates as described below.
T-Rex APOL1 HEK cells are split twice per week to keep the confluence state below 85% of the culture flask surface area. Cells can be kept until passage 25. • Cell Culture Medium • DMEM high glucose +10% FBS, +P/S, +5 μg/mL blasticidin, +1 μg/mL puromycin. • 500 mL DMEM, +55 mL FBS, +5 mL P/S, +280 μL blasicidin 10 mg/mL, +56 μL Puromycin 10 mg/mL. • Assay Media • Opti-MEM reduced serum medium from Invitrogen.
Preparation of Cell Assay Plates • Culture medium is removed from the x cm^2 T-flask by aspiration. • The cell monolayer is rinsed with PBS 1× at room temperature. PBS is removed by aspiration. • Cells are trypsinized using Trypsin. • The flasks are incubated at room temperature for 2-3 minutes. • Complete DMEM medium is then added. Cell suspension is then transferred to a 50 mL Falcon polypropylene tube. • Cells are then counted using a Biorad TC10 cell counter and the required amount of cells are centrifuged at 1200 RPM for 5 minutes. Required amount is 1.3×10^6 cells/mL APOL1 T-Rex HEK cells. • The pellet is suspended in the assay medium. • Using the MultiDrop, add 20 μL to each well (corresponds to 26000 cells total per well) of a 384-well black, transparent, flat bottom Poly-D coated plate. • Tetracycline as prepared in the following section is added to the cells before plating to induce APOL1 expression. • Plates are left at room temperature for 20 to 30 minutes before incubation at 37° C. and 5% CO2. […]
On to `Cc1c(F)c(F)cc2c(CCC(=O)N[C@@H]3C(=O)NC[C@H]3O)c(-c3ccccc3)[nH]c12` [Compound 99, 3-(5,6-difluoro-7-methyl-2-phenyl-1H-indol-3-yl)-N-[(3S,4R)-4-hydroxy-2-oxo-pyrrolidin-3-yl]propanamide], for which the IC50 is less than 250 nM. Under `O=C(CCc1c(-c2ccc(F)c(F)c2)[nH]c2ccccc12)N[C@@H]1C(=O)NC[C@H]1O` [Compound 129, 3-[2-(3,4-difluorophenyl)-1H-indol-3-yl]-N-[(3S,4R)-4-hydroxy-2-oxo-pyrrolidin-3-yl]propanamide] stands less than 250 nM.

Compound `O=C(CCc1c(-c2ccccc2)[nH]c2cc(F)cc(F)c12)N[C@@H]1C(=O)NC[C@H]1O` [Compound 85] had an IC50 of less than 250 nM. The compound `O=C(CCc1c(-c2ccc(F)cc2)[nH]c2ccc(F)cc12)NC1CCNC1=O` (stereo not shown) [Compound 48] came in with an IC50 of less than 250 nM.

The compound `O=C(CCc1c(-c2ccccc2)[nH]c2cc(F)c(F)cc12)N[C@@H]1C(=O)NC[C@H]1O` [Compound 82] had an IC50 of less than 250 nM. `O=C(CCc1c(-c2ccc(C(F)(F)F)cc2)[nH]c2ccccc12)N[C@@H]1C(=O)NC[C@H]1O` [Compound 123] returned an IC50 of less than 250 nM. Under `O=C(CCc1c(-c2ccccc2)[nH]c2cc(F)ccc12)N[C@@H]1C(=O)NC[C@H]1O` [Compound 109, 3-(6-fluoro-2-phenyl-1H-indol-3-yl)-N-[(3S,4R)-4-hydroxy-2-oxo-pyrrolidin-3-yl]propanamide] stands less than 250 nM.

Compound `O=C(CCc1c(-c2ccc(F)cc2)[nH]c2c(Cl)cccc12)N[C@H]1CCNC1=O` [Compound 72] gave a half-maximal inhibitory concentration (IC50) of less than 250 nM.

As to `O=C(CCc1c(-c2ccc(OC(F)(F)F)cc2)[nH]c2ccccc12)N[C@@H]1C(=O)NC[C@H]1O` [Compound 118], the IC50 is less than 250 nM. Under `O=C(CCc1c(-c2ccc(F)cc2)[nH]c2ccccc12)N[C@@H]1C(=O)NC[C@H]1O` [Compound 87, 3-[2-(4-fluorophenyl)-1H-indol-3-yl]-N-[(3S,4R)-4-hydroxy-2-oxo-pyrrolidin-3-yl]propanamide] stands less than 250 nM; under `Cc1cc(F)c2[nH]c(-c3ccc(F)cc3)c(CCC(=O)N[C@@H]3C(=O)NC[C@H]3O)c2c1` [Compound 29], less than 250 nM. The compound `O=C(CCc1c(-c2ccc(C(F)F)cc2)[nH]c2ccccc12)N[C@@H]1C(=O)NC[C@H]1O` [Compound 131, 3-[2-[4-(difluoromethyl)phenyl]-1H-indol-3-yl]-N-[(3S,4R)-4-hydroxy-2-oxo-pyrrolidin-3-yl]propanamide] had an IC50 of less than 250 nM. Under `O=C(CCc1c(-c2ccc(F)cc2)[nH]c2c(F)cc(F)cc12)N[C@H]1C[C@@H](CO)NC1=O` [Compound 7] stands more than 1000 nM. The compound `O=C(CCc1c(-c2ccc(F)cc2)[nH]c2c(F)cc(F)cc12)N[C@H]1C[C@H](CO)NC1=O` [Compound 8] yielded an IC50 of more than 1000 nM.

`O=C(CCc1c(-c2cc(F)cc(F)c2)[nH]c2ccccc12)N[C@@H]1C(=O)NC[C@H]1O` [Compound 127, 3-[2-(3,5-difluorophenyl)-1H-indol-3-yl]-N-[(3S,4R)-4-hydroxy-2-oxo-pyrrolidin-3-yl]propanamide] showed an IC50 of 250 to 1000 nM. `O=C(CCc1c(-c2ccccc2)[nH]c2ccc(F)cc12)N[C@H]1CCNC1=O` [Compound 52] returned an IC50 of less than 250 nM. Under `COc1cc(F)cc2c(CCC(=O)N[C@@H]3C(=O)NC[C@H]3O)c(-c3ccc(F)cc3)[nH]c12` [Compound 40] stands less than 250 nM; under `O=C(CCc1c(-c2ccc(F)cc2)[nH]c2c(Cl)cccc12)N[C@@H]1C(=O)NC[C@H]1O` [Compound 73], less than 250 nM; under `O=C(CCc1c(-c2ccccc2)[nH]c2c(F)c(F)c(F)cc12)N[C@@H]1C(=O)NC[C@H]1O` [Compound 80], less than 250 nM. In turn, `O=C(CCc1c(-c2ccc(F)cc2)[nH]c2ccc(F)cc12)N[C@@H]1CCNC1=O` [Compound 49] showed an IC50 of 250 to 1000 nM.

For `O=C(CCc1c(-c2ccc(F)cc2)[nH]c2c(OC(F)F)cc(F)cc12)N[C@@H]1C(=O)NC[C@H]1O` [Compound 107], the IC50 was less than 250 nM.

As to `O=C(CCc1c(-c2ccc(F)cc2)[nH]c2c(F)cc(F)cc12)N[C@@H]1CCNC1=O` [Compound 13], the IC50 was in the range of 250 to 1000 nM. Under `O=C(CCc1c(-c2ccccc2)[nH]c2c(F)cc(F)cc12)N[C@@H]1C(=O)NC[C@H]1O` [Compound 26] stands less than 250 nM; under `O=C(CCc1c(-c2ccccc2)[nH]c2c(F)cccc12)N[C@@H]1C(=O)NC[C@H]1O` [Compound 61], less than 250 nM; under `O=C(CCc1c(-c2ccc(F)cc2)[nH]c2c(F)cc(Br)cc12)N[C@H]1CCNC1=O` [Compound 27], less than 250 nM.

For `O=C(CCc1c(-c2ccccc2)[nH]c2ccc(F)cc12)N[C@@H]1C(=O)NC[C@H]1O` [Compound 51], the IC50 is less than 250 nM. Under `O=C(CCc1c(-c2ccc(F)cc2)[nH]c2c(F)cccc12)N[C@@H]1C(=O)NC[C@H]1O` [Compound 76] stands less than 250 nM. Under `O=C(CCc1c(-c2cccc(F)c2)[nH]c2c(F)cc(F)cc12)N[C@@H]1C(=O)NC[C@H]1O` [Compound 103] stands less than 250 nM.

The compound `Cc1ccc(-c2[nH]c3ccccc3c2CCC(=O)N[C@@H]2C(=O)NC[C@H]2O)cc1` [Compound 124] had an IC50 of less than 250 nM. For the compound `Cc1ccc2[nH]c(-c3ccc(Br)cc3)c(CCC(=O)N[C@H]3CCNC3=O)c2c1` [Compound 43, 3-[2-(4-bromophenyl)-5-methyl-1H-indol-3-yl]-N-[(3S)-2-oxopyrrolidin-3-yl]propanamide], the half-maximal inhibitory concentration (IC50) is less than 250 nM. Compound `O=C(CCc1c(-c2ccc(F)cc2)[nH]c2c(Cl)cc(F)cc12)N[C@@H]1C(=O)NC[C@H]1O` [Compound 36] yielded an IC50 of less than 250 nM. `O=C(CCc1c(-c2cc(F)cc(F)c2)[nH]c2c(F)cc(F)cc12)N[C@@H]1C(=O)NC[C@H]1O` [Compound 104] displayed an IC50 of less than 250 nM. In turn, `Cc1c(F)c(F)cc2c(CCC(=O)N[C@@H]3C(=O)NC[C@H]3O)c(-c3ccc(F)cc3)[nH]c12` [Compound 98, 3-[5,6-difluoro-2-(4-fluorophenyl)-7-methyl-1H-indol-3-yl]-N-[(3S,4R)-4-hydroxy-2-oxo-pyrrolidin-3-yl]propanamide] registered an IC50 of less than 250 nM. Under `Cc1ccc(-c2[nH]c3ccccc3c2CCC(=O)N[C@@H]2C(=O)NC[C@H]2O)c(F)c1` [Compound 122] stands less than 250 nM; under `Cc1ccc(-c2[nH]c3ccccc3c2CCC(=O)N[C@@H]2C(=O)NC[C@H]2O)cc1F` [Compound 126], less than 250 nM. As to `O=C(CCc1c(-c2ccc(Cl)c(F)c2)[nH]c2ccccc12)N[C@@H]1C(=O)NC[C@H]1O` [Compound 120], the IC50 was less than 250 nM. Under `Cc1cc(F)cc2c(CCC(=O)N[C@@H]3C(=O)NC[C@H]3O)c(-c3ccc(F)cc3)[nH]c12` [Compound 37] stands less than 250 nM.

By IC50 is commonly meant the midpoint of a concentration-inhibition curve. Higher therefore signals weaker potency in that assay.
